According to patent US20090137580A1, “Fused Heterocyclic Derivatives and Use Thereof” (Takeda Pharmaceutical Company Limited, priority 2005, published 2009):

Experiments:
[1] = molecular target: T1, VEGF Receptor 2 Kinase (VEGFR2) (Homo sapiens, UniProt P35968); assay: Determination of VEGF receptor 2 kinase (VEGFR2) inhibitory activity (alpha screen); assay type: biochemical; conditions: VEGFR2 intracellular domain protein, 25 μM ATP buffer, read-out: inhibitory rate (kinase inhibitory rate of VEGFR2)
T1 construct: made in house; host or cells: SF-21 insect cells, recombinant baculovirus BAC-VEGFR2 (pFASTBAC1)
Experimental: For cloning of human VEGF receptor 2 (hereinafter to be abbreviated as VEGFR2) gene, PCR was performed using cDNA Libraries Human Placenta (Clontech) as a template. The primer used for PCR was prepared by, based on the information of the base sequence (Genbank Accession AF035121) of VEGFR2 gene, adding a base sequence encoding the flag peptide and a restriction enzyme recognition sequence to the base sequence (2671-4374 of Genbank Accession AF035121) encoding the VEGFR2 intracellular domain, so that a flag tag would be added to the N terminal of the protein. The primer base sequence is shown in the following.
PCR reaction was carried out using a KOD-plus kit (TOYOBO). The obtained PCR product was electrophoresed on an agarose gel (1%), and a DNA fragment amplified by PCR was recovered from the gel and digested with restriction enzymes Sal I and Sph I. The DNA after the restriction enzyme treatment was electrophoresed on an agarose gel (1%), and the obtained DNA fragment was recovered and ligated to the plasmid pFASTBAC1 (Invitrogen) digested with restriction enzymes Sal I and Sph I to give an expression plasmid pFB-VEGFR2. The base sequence of the inserted fragment was confirmed to have matched with the base sequence (2671-4374 of Genbank Accession AF035121) of the VEGFR2 intracellular domain. Furthermore, virus stock BAC-VEGFR2 of the recombinant Baculovirus was prepared using BAC-TO-BAC Baculovirus Expression System (Invitrogen).
SF-21 cells were inoculated into 1 L of Sf-900IISFM medium (Invitrogen) containing 10% fetal calf serum (trace), 50 mg/L Gentamicin (Invitrogen) and 0.1% Pluronic F-68 (Invitrogen) at 1×10^6 cells/ml, and shake culture was performed using a 2 L Erlenmeyer flask at 27° C., 100 rpm. After 24 hr of culture, recombinant Baculovirus BAC-VEGFR2 (13.4 mL) was added, and the culture was continued for 3 days. The culture medium was centrifuged at 2,000 rpm for 5 min to give virus-infected cells. The infected cells were washed with phosphate buffered saline (Invitrogen), centrifuged under the same conditions, and preserved at −80° C. The cryopreserved cells were thawed in ice, suspended in 30 mL of buffer A (Tris buffer, pH 7.4, containing 20% glycerol and 0.15M NaCl (50 mM)) supplemented with Complete Protease Inhibitor (Boehringer), and disrupted three times using a polytron homogenizer (Kinematica) at 20,000 rpm, 30 sec. The disrupt was clarified by centrifugation at 40,000 rpm, 30 min and filtered through a 0.45 μm filter. The filtrate was passed through a column packed with Anti-FLAG M2 Affinity Gel (Sigma Ltd., 4 mL) at a flow rate of about 0.5 mL/min. The column was washed with buffer A and eluted with buffer A containing 100 μg/mL FLAG peptide. The eluate was concentrated by Vivaspin 20 (Viva Science) having a fraction molecular weight of 30K. The concentrate was applied to NAP™ 25 column (Amersham Biosciences) equilibrated with buffer A for buffer exchange. The fractions containing the VEGFR2 intracellular domain protein were collected, glycerol was added to the final concentration of 50% and the fractions cryopreserved at ˜80° C.
The test compound dissolved in dimethyl sulfoxide (DMSO) was diluted with a buffer (50 mM Tris-HCl, pH 7.5, 5 mM MgCl2, 5 mM MnCl2, 2 mM dithiothreitol, 0.01% Tween-20). A buffer (10 μl) containing 50 ng/ml VEGFR2 intracellular domain protein and 250 ng/ml biotin-labeled polypeptide biotinyl-poly-Glu:Tyr (4:1) (CIS Bio International) was added to the compound solution (5 μl). A buffer (10 μl) containing 25 μM ATP was added to the obtained mixture, the mixture was allowed to react at 25° C. for 5 min. Then, 25 μl of a stop solution (100 mM EDTA·2 sodium salt, 62.5 mM HEPES buffer (pH 7.4), 250 mM NaCl, 0.1% bovine serum albumin, 10 μg/ml Streptavidin Donor beads: PerkinElmer for alpha screen assay, 10 μg/ml Anti-phosphotyrosine (P-Tyr-100) Acceptor beads: PerkinElmer for alpha screen assay) was added to quench the reaction. […]

[2] = molecular target: T2, TIE2 Receptor Kinase (TIE2) (Homo sapiens, UniProt Q02763); assay: Determination of TIE2 receptor kinase (TIE2) inhibitory activity (alpha screen); assay type: biochemical; conditions: TIE2 intracellular domain protein, 5 μM ATP buffer; read-out: IC50 value (TIE2 kinase inhibition)
T2 construct: TIE2 intracellular domain protein (UPSTATE); purchased UPSTATE
Experimental: The test compound dissolved in dimethyl sulfoxide (DMSO) was diluted with a buffer (50 mM Tris-HCl, pH 7.5, 5 mM MgCl2, 5 mM MnCl2, 2 mM dithiothreitol, 0.01% Tween-20). A buffer (10 μl) containing 50 ng/ml TIE2 intracellular domain protein (UPSTATE) and 250 ng/ml biotin-labeled polypeptide biotinyl-poly-Glu:Tyr (4:1) (CIS Bio International) was added to the compound solution (5 μl). At 5 min after mixing a kinase enzyme, the compound and a biotin-labeled polypeptide, a buffer (10 μl) containing 5 μM ATP was added to the obtained mixture, the mixture was allowed to react at 25° C. for 10 min. Then, 25 μl of a stop solution (100 mM EDTA·2 sodium salt, 62.5 mM HEPES buffer (pH 7.4), 250 mM NaCl, 0.1% bovine serum albumin, 10 μg/ml Streptavidin Donor beads: PerkinElmer for alpha screen assay, 10 μg/ml Anti-phosphotyrosine (P-Tyr-66) Acceptor beads: PerkinElmer for alpha screen assay) was added to quench the reaction. The reaction solution was stood at 25° C. for 16 hr, and the count was measured using a plate reader·Fusion™ (manufactured by PerkinElmer). The kinase inhibitory rate (%) of the test compound was calculated by the following formula.
Inhibitory rate(%)=(1−(count of test compound−blank)÷(control−blank))×100
wherein the count of the solution reacted without addition of the compound is “control” and the count of the solution without addition of the compound and ATP is “blank”.
Prism (Graphpad Software) according to the nonlinear-regression sigmoidal dose-response (variable slope) analysis method.

T2 sequence (Q02763 770-1124 limits assumed): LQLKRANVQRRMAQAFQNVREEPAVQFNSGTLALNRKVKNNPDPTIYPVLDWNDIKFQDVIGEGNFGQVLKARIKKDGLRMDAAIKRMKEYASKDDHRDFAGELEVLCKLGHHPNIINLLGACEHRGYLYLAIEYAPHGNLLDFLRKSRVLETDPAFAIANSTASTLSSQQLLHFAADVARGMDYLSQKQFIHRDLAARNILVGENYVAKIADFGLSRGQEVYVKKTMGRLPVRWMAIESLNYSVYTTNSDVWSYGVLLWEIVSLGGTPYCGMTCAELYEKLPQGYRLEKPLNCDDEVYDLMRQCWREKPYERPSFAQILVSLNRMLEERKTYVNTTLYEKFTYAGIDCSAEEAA
T1 sequence (P35968 786-1356 limits assumed): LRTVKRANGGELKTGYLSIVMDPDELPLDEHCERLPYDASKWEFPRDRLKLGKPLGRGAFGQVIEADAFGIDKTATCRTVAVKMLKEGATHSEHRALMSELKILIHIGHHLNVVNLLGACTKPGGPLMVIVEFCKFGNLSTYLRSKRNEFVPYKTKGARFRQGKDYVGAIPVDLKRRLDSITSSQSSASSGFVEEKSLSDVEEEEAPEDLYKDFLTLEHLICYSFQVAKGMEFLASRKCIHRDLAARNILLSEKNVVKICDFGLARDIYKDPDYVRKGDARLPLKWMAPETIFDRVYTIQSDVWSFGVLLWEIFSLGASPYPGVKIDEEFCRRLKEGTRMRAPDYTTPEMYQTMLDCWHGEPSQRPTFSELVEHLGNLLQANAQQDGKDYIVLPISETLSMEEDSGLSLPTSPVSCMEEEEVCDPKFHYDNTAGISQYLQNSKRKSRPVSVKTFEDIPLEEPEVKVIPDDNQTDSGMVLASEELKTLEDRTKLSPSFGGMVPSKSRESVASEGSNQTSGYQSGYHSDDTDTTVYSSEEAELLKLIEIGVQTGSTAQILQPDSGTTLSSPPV

inhibition at 1 µM [1] [%] | IC50 [2] [nM] | SMILES
≥ 90 | ≤ 5 | Cn1ccc2ncnc(Oc3ccc(NC(=O)Nc4cccc(C(F)(F)F)c4)c(Cl)c3)c21 [Example 15, N-{2-chloro-4-[(5-methyl-5H-pyrrolo[3,2-d]pyrimidin-4-yl)oxy]phenyl}-N′-[3-(trifluoromethyl)phenyl]urea]
≥ 90 | ≤ 5 | Cn1ccc2ncnc(Oc3ccc(NC(=O)Nc4cccc(OC(F)(F)F)c4)c(Cl)c3)c21 [Example 20, N-{2-chloro-4-[(5-methyl-5H-pyrrolo[3,2-d]pyrimidin-4-yl)oxy]phenyl}-N′-[3-(trifluoromethoxy)phenyl]urea]
≥ 90 | ≤ 5 | Cc1cc(Oc2ncnc3ccn(C)c23)ccc1NC(=O)Nc1cccc(C(F)(F)F)c1 [Example 41, N-{2-methyl-4-[(5-methyl-5H-pyrrolo[3,2-d]pyrimidin-4-yl)oxy]phenyl}-N′-[3-(trifluoromethyl)phenyl]urea]
≥ 90 | ≤ 5 | CCn1ccc2ncnc(Oc3ccc(NC(=O)Nc4cccc(C(F)(F)F)c4)c(Cl)c3)c21 [Example 47, N-{2-chloro-4-[(5-ethyl-5H-pyrrolo[3,2-d]pyrimidin-4-yl)oxy]phenyl}-N′-[3-(trifluoromethyl)phenyl]urea]
